The results in this text go back to patent US20250206734A1, “BICYCLIC HETEROCYCLES AS MRGPRX2 ANTAGONISTS” (Incyte Corporation, priority 2023, published 2025).

Test [1] has as its target T1, MRGPRX2 (Homo sapiens, UniProt Q96LB1).
T1 sequence (Q96LB1 1-330): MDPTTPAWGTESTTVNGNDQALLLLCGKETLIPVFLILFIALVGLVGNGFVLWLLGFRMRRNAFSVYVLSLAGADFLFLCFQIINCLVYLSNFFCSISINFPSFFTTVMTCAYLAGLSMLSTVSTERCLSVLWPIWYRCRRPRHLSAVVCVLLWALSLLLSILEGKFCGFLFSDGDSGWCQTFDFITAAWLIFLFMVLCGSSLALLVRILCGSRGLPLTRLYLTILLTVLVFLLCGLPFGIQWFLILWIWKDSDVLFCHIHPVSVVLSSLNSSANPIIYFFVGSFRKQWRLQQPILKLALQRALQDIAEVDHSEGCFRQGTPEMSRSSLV
Nature of the test: MRGPRX2 FLIPR Calcium Mobilization Assay. In kind it is cell-based. Also noted: host or cells: CHO-K1. Conditions: CHO-K1 cells stably expressing human MRGPRX2; Ca2+ release; agonist Cortistatin-14 at EC80. As for the experimental part:
Example A. MRGPRX2 FLIPR Calcium Mobilization Assay
Chinese hamster ovary (CHO-K1) cells stably expressing human MRGPRX2 were purchased from Genescript (Piscataway, NJ). The cells were maintained in culture medium (Ham's F-12K) containing 10% (v/v) FBS, 200 μg/mL Zeocin, 100 units/mL penicillin G and 100 μg/mL streptomycin (Life Technologies, Carlsbad, CA). For the assay, the cells were harvested and resuspended with culture medium without Zeocin before plating at 8000 cells per well in 20 μL in 384-well black clear bottom cell culture plates (VWR, Radnor, PA). After 24 hour culture at 37° C. and 5% CO2, the cells were loaded with 20 μL/well of calcium dye (FLIPR Calcium 6 Assay Kit, Molecular Devices, San Jose, CA) diluted in loading buffer (1× Hank's Balanced Salt Solution (HBSS), 5 mM probenecid, 20 mM 4-(2-hydroxyethyl)-1-piperazineethanesulfonic acid (HEPES), pH 7.4, VWR, Radnor, PA) followed with 45 min incubation at 37° C. and 40 min. at r.t. in the dark. Cells were then treated with the addition of 10 uL/well test compounds with a range of increasing concentrations diluted in the assay buffer (1×HBSS, 20 mM HEPES, pH 7.4, VWR, Radnor, PA) with FLIPR Penta (Molecular Devices. San Jose, CA) and incubated for 30 min. at r.t. Ca^2+ release was measured with FLIPR Penta with 10 s basal fluorescence measurement, then 12.5 μL of 5× agonist Cortistatin-14 (Tocris, Minneapolis, MN) at final concentration corresponding to the EC80 were added followed with continued fluorescence signal monitoring for an additional 110 s. The base line adjusted (median of first 10s base line) max value of the Relative Fluorescence Unit (RFU) was plotted against compound concentrations. Wells with no compound were served as the positive controls, and wells with high concentration of reference antagonist were used as negative controls. IC50 curves were globally fitted with 3- or 4-parameter Hill equation in a Genedata Screener (Genedata Basel, Switzerland).
A general note: A change in cytosolic calcium serves as a functional read-out for many receptors and channels.

Test [2] concerns the target T1, MRGPRX2. The test is described as follows: MRGPRX2 β-Arrestin Assay. The format is cell-based. Conditions: PathHunter CHO-K1 MRGPRX2 β-Arrestin cell line; agonist Cortistatin 14 0.25 μM. Also noted: host or cells: PathHunter CHO-K1. The source says:
Example C: MRGPRX2 β-Arrestin Assay
This assay measures compound inhibition of β-Arrestin recruitment, which is part of the G protein-independent pathway that results from the ligand-activated GPCR phosphorylation by specific GPCR kinases. The PathHunter CHO-K1 MRPGRX2 B-Arrestin Cell line stably expressing ProLink tagged MRGPRX2 and Enzyme Acceptor Tagged B-Arrestin was purchased from Eurofins DiscoverX, (Fremont, CA).
The cells were maintained in culture medium from the Europhins DiscoverX Cell Culture Kit-107 which includes FBS, hygromycin B and G418. For the assay, the cells were harvested and were resuspended with Cell Plating Reagent 2 (Eurofins DiscoverX). Cells were added 10000 cells in 25 μL/well to a 384-well black cell culture plate (Greiner VWR, Radnor, PA) which contained 125 nL/well of compound at a selected serially diluted concentration range or DMSO. The plate was incubated at 37° C. with 5% CO2 for 1 h. 2 μL/well of agonist Cortistatin 14 was diluted in Protein Dilution Buffer, (Eurofins DiscoverX) for a final concentration of 0.25 μM, was added and the plate was incubated at 37° C. with 5% CO2 for 90 min. 14 μL/well of Detection Reagent Mix (PathHunter Detection Kit, Eurofins DiscoverX) was added to the plates and further incubated for 1 h in the dark. Plates were read on the PHERAstar microplate reader (BMG Labtech Cary, NC) measuring luminescence 0.1 to 1 s per well. Data was normalized using DMSO only wells and wells with high concentration of reference antagonist as controls. Compound IC50 curves were globally fitted with 3- or 4-parameter Hill equation in a Genedata Screener (Genedata Basel, Switzerland).

Each structure is given as a SMILES string.

Take `CC1(O)CCCN(C(c2cc3ncc(Oc4ccc(F)cc4F)cc3cn2)C(F)F)C1` (stereo not drawn) [Example 21, 1-(1-(3-(2,4-Difluorophenoxy)-1,6-naphthyridin-7-yl)-2,2-difluoroethyl)-3-methylpiperidin-3-ol]: the IC50 at MRGPRX2 [1] and on MRGPRX2 [2] was 0.1 to 100 nM throughout.
On to `NC(=O)[C@@H]1CCCN1C(c1cc2ncc(Oc3ccc(F)cc3F)cc2cn1)C(F)F` (stereo partly drawn) [Example 24, (2S)-1-(1-(3-(2,4-Difluorophenoxy)-1,6-naphthyridin-7-yl)-2,2-difluoroethyl)pyrrolidine-2-carboxamide], for which the IC50 at MRGPRX2 [1] and at MRGPRX2 [2] was 0.1 to 100 nM throughout.
Take `Fc1ccc(Oc2cnc3cc(C(C(F)F)N4CCC(F)(F)CC4)ncc3c2)c(F)c1` (stereo not drawn) [Example 22, 3-(2,4-Difluorophenoxy)-7-(1-(4,4-difluoropiperidin-1-yl)-2,2-difluoroethyl)-1,6-naphthyridine]: the IC50 on MRGPRX2 [1] and on MRGPRX2 [2] was 0.1 to 100 nM in each case.
Take `Fc1ccc(Oc2cnc3cc(C(C(F)F)N4CCCC(c5ccn[nH]5)C4)ncc3c2)c(F)c1` (stereo not drawn) [Example 23, 7-(1-(3-(1H-Pyrazol-5-yl)piperidin-1-yl)-2,2-difluoroethyl)-3-(2,4-difluorophenoxy)-1,6-naphthyridine]: the IC50 at MRGPRX2 [1] and at MRGPRX2 [2] was 0.1 to 100 nM each time.
Regarding `O=c1ccc(C2CN(C(c3cc4ncc(Nc5ccc(F)cc5F)cc4cn3)C(F)(F)F)CCC2(F)F)c[nH]1` (stereo not drawn) [Example 26, 5-(1-(1-(3-((2,4-Difluorophenyl)amino)-1,6-naphthyridin-7-yl)-2,2,2-trifluoroethyl)-4,4-difluoropiperidin-3-yl)pyridin-2(1H)-one], the IC50 on MRGPRX2 [2] was greater than 1000 nM.
Still for that read-out and setting: the figure for `O=c1ccc(C2CN(C(c3cc4ncc(Cc5ccccc5)cc4cn3)C(F)(F)F)CCC2(F)F)c[nH]1` (stereo not drawn) [Example 27, 5-(1-(1-(3-Benzyl-1,6-naphthyridin-7-yl)-2,2,2-trifluoroethyl)-4,4-difluoropiperidin-3-yl)pyridin-2(1H)-one] is greater than 1000 nM.
Take `N#CC1CCCN(C(c2cc3ncc(Oc4ccc(F)cc4F)cc3cn2)C(F)(F)F)C1` (stereo not drawn) [Example 10, 1-(1-(3-(2,4-Difluorophenoxy)-1,6-naphthyridin-7-yl)-2,2,2-trifluoroethyl)piperidine-3-carbonitrile]: the IC50 on MRGPRX2 [1] and on MRGPRX2 [2] was 0.1 to 100 nM throughout.
Take `Fc1ccc(Oc2cnc3cc(C(N4CC5CCC4C5)C(F)(F)F)ncc3c2)c(F)c1` (stereo not drawn) [Example 11, 7-(1-(2-Azabicyclo[2.2.1]heptan-2-yl)-2,2,2-trifluoroethyl)-3-(2,4-difluorophenoxy)-1,6-naphthyridine]: the IC50 at MRGPRX2 [2] was in the range of 100 to 1000 nM.
For `Fc1ccc(Oc2cnc3cc(C(C(F)F)N4CCCC4c4ccccc4)ncc3c2)c(F)c1` (stereo not drawn) [Example 25, 7-(2,2-Difluoro-1-(2-phenylpyrrolidin-1-yl)ethyl)-3-(2,4-difluorophenoxy)-1,6-naphthyridine], the IC50 on MRGPRX2 [1] and at MRGPRX2 [2] was 0.1 to 100 nM in each case.
As to `CC1(CO)CCCN(C(c2cc3ncc(Oc4ccc(F)cc4F)cc3cn2)C(F)(F)F)C1` (stereo not drawn) [Example 9, (1-(1-(3-(2,4-Difluorophenoxy)-1,6-naphthyridin-7-yl)-2,2,2-trifluoroethyl)-3-methylpiperidin-3-yl)methanol], the IC50 at MRGPRX2 [1] and at MRGPRX2 [2] was 0.1 to 100 nM each time.
In the case of `OC[C@@H]1CCCN1C(c1cc2ncc(Oc3ccc(F)cc3F)cc2cn1)C(F)(F)F` (stereo partly drawn) [Example 13, ((2S)-1-(1-(3-(2,4-Difluorophenoxy)-1,6-naphthyridin-7-yl)-2,2,2-trifluoroethyl)pyrrolidin-2-yl)methanol], the IC50 on MRGPRX2 [1] and at MRGPRX2 [2] was 0.1 to 100 nM each time.
Take `CC1(C)CN(C(c2cc3ncc(Oc4ccc(F)cc4F)cc3cn2)C(F)(F)F)CCO1` (stereo not drawn) [Example 8, 4-(1-(3-(2,4-Difluorophenoxy)-1,6-naphthyridin-7-yl)-2,2,2-trifluoroethyl)-2,2-dimethylmorpholine]: the IC50 on MRGPRX2 [1] and on MRGPRX2 [2] was 0.1 to 100 nM each time.

For orientation: IC50 means the midpoint of a concentration-inhibition curve.
